The test system of test [1] is oedema in mouse ear induced with PMA (phorbol myristate acetate). Kind of test: Acute contact dermatitis: TPA-induced ear oedema in mice. In kind it is in vivo. As to conditions: CD1 mice, 500 μg/ear topical in TPDS 30 minutes before 0.01% TPA, ear weight six hours later, vs TPA alone. On the procedure: The antiinflammatory activity was evaluated by means of inhibition of the oedema in mouse ear induced with PMA (phorbol myristate acetate). A) Acute Contact Dermatitis Groups of 5 CD1 mice (18-24 g) were used. All the macrolide derivatives were dissolved in Trans-phase Delivery System (TPDS), a carrier containing 10% benzyl alcohol, 40% acetone and 50% isopropanol. 15 microlitres of the compounds (500 μg/ear), dissolved in TPDS, were applied topically to the inner surface of an ear; 30 minutes later, 12 microlitres of a solution of tetradecanoylphorbol acetate (TPA) at a concentration of 0.01% dissolved in acetone were applied to the same area. Six hours later, the animals were sacrificed by inhalation of CO2. The degree of oedema was calculated by subtracting the weight of a specified section of the untreated ear from that of the contralateral treated ear. To determine the degree of remission of the oedema, the weight difference of the groups treated with TPA+macrolides was then compared with the groups treated with TPA alone. The activity of the macrolides was measured by using the modified method of Zunic et al. (1998): MDL (Lysyl) GDP, a non-toxic muramyl dipeptide derivative inhibits cytokine production by activated macrophages and protects mice from phorbol ester- and oxazolone-induced inflammation (J. Invest. Dermatol., 111(1), 77-82).

The test system of test [2] is Escherichia coli (ATCC 25922). Put plainly: Antibiotic activity by turbidimetric assay of bacterial growth. Format: cell-based. The conditions noted are these: for IC20: concentration that inhibits growth of E. coli ATCC 25922 by 20%; for IC20 / IC50 / IC80: maximum test concentration 100 μM, mean of at least three incubation times; for IC50: concentration that inhibits growth of E. coli ATCC 25922 by 50%; for IC80: concentration that inhibits growth of E. coli ATCC 25922 by 80%; for activity towards bacterial growth (in words): turbidimetric assay, strains sensitive to erythromycin and telithromycin.

The text below walks through data of US20100099634A1, “MACROLIDE COMPOUNDS ENDOWED WITH ANTIINFLAMMATORY ACTIVITY” (Zambon S.p.A, priority 2006, published 2010).

`CC[C@H]1OC(=O)[C@H](C)[C@@H](O[C@H]2C[C@@](C)(OC)[C@@H](O)[C@H](C)O2)[C@H](C)[C@@H](O[C@@H]2O[C@H](C)C[C@H](N(C)C)[C@H]2O)[C@](C)(O)C[C@@H](C)CN(C)[C@H](C)[C@@H](O)[C@]1(C)O` [Azithromycin]: in test [1], the “Oedema (% inhibition)” value worked out at 40%.
Take `CC[C@H]1OC(=O)[C@H](C)[C@@H](O[C@H]2C[C@@](C)(OC)[C@@H](O)[C@H](C)O2)[C@H](C)[C@@H](O[C@@H]2O[C@H](C)C[C@H](N(C)C)[C@H]2O)[C@](C)(O)C[C@@H](C)C(=O)[C@H](C)[C@@H](O)[C@]1(C)O` [Erythromycin]: in test [1], the “Oedema (% inhibition)” value was 42%. In test [2] (Escherichia coli, ATCC25922), this compound showed an IC20 of 3 µM, an IC50 of 7.8 µM and an IC80 of 24.3 µM. For the same compound, the “activity towards bacterial growth (in words)” value in test [2] was “substantial inhibition of the bacterial development”.
Regarding `CC[C@H]1OC(=O)[C@H](C)C(=O)[C@H](C)[C@@H](O[C@@H]2O[C@H](C)C[C@H](N(C)C(=O)c3ccccc3)[C@H]2O)[C@](C)(OC)C[C@@H](C)C(=O)[C@H](C)[C@H]2N(CCCCn3cnc(-c4cccnc4)c3)C(=O)O[C@]12C` [Compound 2, 3′-demethyl-3′-benzoyltelithromycin], the “Oedema (% inhibition)” value in test [1] is on record as 81.8%. In test [2], the IC20 is greater than 100 µM, the IC50 was greater than 100 µM and the IC80 was greater than 100 µM.
For the compound `CC[C@H]1OC(=O)[C@H](C)C(=O)[C@H](C)[C@@H](O[C@@H]2O[C@H](C)C[C@H](N(C)C)[C@H]2O)[C@](C)(OC)C[C@@H](C)C(=O)[C@H](C)[C@H]2N(CCCCn3cnc(-c4cccnc4)c3)C(=O)O[C@]12C` [Telithromycin], the “Oedema (% inhibition)” value in test [1] is listed as 79.7%. In test [2] (Escherichia coli, ATCC25922), this compound had an IC20 of 2.7 µM, a half-inhibitory concentration (IC50) of 5.7 µM and an IC80 of 14.9 µM. In test [2], the “activity towards bacterial growth (in words)” value is “substantial inhibition of the bacterial development”.
With `CCC1OC(=O)C(C)C(=O)C(C)C(OC2OC(C)CC(N(C)C(C)=O)C2O)C(C)(OC)CC(C)C(=O)C(C)C2N(CCCCn3cnc(-c4cccnc4)c3)C(=O)OC12C` (stereo not shown) [Compound 1, 3′-demethyl-3′-acetyltelithromycin], the “Oedema (% inhibition)” value in test [1] was 81.7%. Further, in test [2], the IC20 is greater than 100 µM, the IC50 is greater than 100 µM and the IC80 is greater than 100 µM.
